Measured values from patent US20240384268A1, “Oligonucleotides” (Hudson Institute of Medical Research, priority 2021, published 2024).
In the oligonucleotide strings, read from the 5' end, every base follows the letter of its sugar. An asterisk marks phosphorothioate; unmarked linkages are phosphodiester. Other units and linkages are bracketed, terminal groups are in braces. A string of capitals states the bases alone. d = 2'-deoxy (DNA); m = 2'-O-methyl

Biological target: T1, TLR8 (Homo sapiens, UniProt Q9NR97)
T1 sequence (Q9NR97 27-1041): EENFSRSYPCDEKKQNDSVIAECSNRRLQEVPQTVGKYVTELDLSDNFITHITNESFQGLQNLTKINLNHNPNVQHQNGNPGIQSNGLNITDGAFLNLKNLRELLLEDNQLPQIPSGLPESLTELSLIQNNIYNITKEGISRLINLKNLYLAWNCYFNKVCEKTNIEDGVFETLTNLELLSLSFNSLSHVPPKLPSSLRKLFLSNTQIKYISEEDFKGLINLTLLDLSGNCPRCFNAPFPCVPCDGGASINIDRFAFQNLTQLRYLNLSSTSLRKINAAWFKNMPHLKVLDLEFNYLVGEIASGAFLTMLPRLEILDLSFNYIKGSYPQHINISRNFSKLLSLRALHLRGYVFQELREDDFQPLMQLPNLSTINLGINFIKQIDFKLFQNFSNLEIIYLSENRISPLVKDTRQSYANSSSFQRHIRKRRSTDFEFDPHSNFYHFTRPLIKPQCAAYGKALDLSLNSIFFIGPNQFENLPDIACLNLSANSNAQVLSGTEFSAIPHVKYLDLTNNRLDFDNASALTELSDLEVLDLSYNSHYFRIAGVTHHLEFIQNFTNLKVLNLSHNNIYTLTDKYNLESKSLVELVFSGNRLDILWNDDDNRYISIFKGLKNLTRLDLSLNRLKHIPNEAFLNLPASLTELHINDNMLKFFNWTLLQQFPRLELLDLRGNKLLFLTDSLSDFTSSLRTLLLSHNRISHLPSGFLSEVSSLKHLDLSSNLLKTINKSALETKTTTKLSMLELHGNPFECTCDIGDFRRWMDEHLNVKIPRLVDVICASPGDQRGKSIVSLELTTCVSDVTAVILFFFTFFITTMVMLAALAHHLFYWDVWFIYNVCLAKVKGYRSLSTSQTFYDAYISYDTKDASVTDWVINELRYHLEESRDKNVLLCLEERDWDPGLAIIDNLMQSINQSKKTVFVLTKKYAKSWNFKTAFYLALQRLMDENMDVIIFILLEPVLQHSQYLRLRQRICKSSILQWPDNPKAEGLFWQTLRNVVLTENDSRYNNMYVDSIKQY
Assay: HEK-TLR8 NF-κB-luciferase reporter, R848 or Motolimod stimulation (potentiation or inhibition)
Assay type: cell-based
Parameters: expressed in transfected cells; host or cells: 293XLhTLR8 (HEK293)
Details: for TLR8 100 nM (averaged NF-κB-Luciferase level relative to R848 condition, fold increase): ASO 100 nM; for TLR8 100 nM (averaged NF-κB-Luciferase level relative to R848 condition, fold increase) / TLR8 500 nM (averaged NF-κB-Luciferase level relative to R848 condition, fold increase): relative to R848 only; for TLR8 500 nM (averaged NF-κB-Luciferase level relative to R848 condition, fold increase): ASO 500 nM

Substance	TLR8 100 nM (averaged NF-κB-Luciferase level relative to R848 condition, fold increase)	TLR8 500 nM (averaged NF-κB-Luciferase level relative to R848 condition, fold increase)	TLR8-500 nM: averaged NF-κB-Luciferase relative to R848 (HEK-TLR8, 500 nM ASO, fold increase relative to R848 without ASO (Alharbi et al., 2020)) [fold]
TGTCCTTGCACGTGGC (antisense; LNA-modified, pattern not given here) [EGFR-1016 LNA V1]	0.636	1.158	
ACCACGTCTGCTCTAA (antisense; LNA-modified, pattern not given here) [CAMSAP1-1635 LNA KL]	0.933	4.259	
mG*mU*mC*mU*mC*C*A*T*G*T*C*C*C*A*G*mG*mC*mC*mU*mC (mG*mU*mC*mU*mC*dC*dA*dT*dG*dT*dC*dC*dC*dA*dG*mG*mC*mC*mU*mC) [[CDKN2B;AS1]2231]			1.25
CCCACTTGGCAGACCA (antisense; LNA-modified, pattern not given here) [CTNN2B-1576 LNA V1]	0.899	1.865	
GTGATGGCCTCCCATC (antisense; LNA-modified, pattern not given here) [HPRT LNA-333 V1]	0.517	1.112	
GAAAGGTTATGCAAGG (antisense; LNA-modified, pattern not given here) [CTNN2B-916 LNA KL]	1.156	4.110	
TGGTGGCCACCCATCT (antisense; LNA-modified, pattern not given here) [CTNN2B-2479 LNA V1]	0.464	0.604	
GTGATCTTGACATGCT (antisense; LNA-modified, pattern not given here) [EGFR-2790 LNA KL]	0.583	1.806	
